# Reference: patent publication US20260262643A1, “HERBICIDAL BENZOXAZINES” (FMC CORPORATION, priority 2022, published 2026)
# Legend:
# [1] = test system: wheat; assay: Test A postemergence; assay type: in vivo, Triticum aestivum; settings: postemergence, 10 days; for Wheat plant response rating: 125 g ai/ha, 0 to 100 scale, 0 no effect, 100 complete control; for Plant response rating, Wheat: 500 g ai/ha, visual injury, 0 to 100 scale (0 no effect, 100 complete control)
# Outline: (§1)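 Visual injury ratings on a 0–100 scale (100 = complete control) versus untreated controls, taken 10 days after treatment in greenhouse. Preemergence: directed soil spray onto seeded loam/sand. Postemergence: foliar application at one- to two-leaf stage, plants 2–10 cm. Formulation: non-phytotoxic solvent plus surfactant.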
# [2] = test system: blackgrass; assay: Test A postemergence; assay type: in vivo, Alopecurus myosuroides; settings: postemergence, 10 days; for Blackgrass plant response rating: 125 g ai/ha, 0 to 100 scale, 0 no effect, 100 complete control; for Plant response rating, Blackgrass: 500 g ai/ha, visual injury, 0 to 100 scale (0 no effect, 100 complete control)
# Outline: as §1
# [3] = test system: corn; assay: Test A postemergence; assay type: in vivo, Zea mays; settings: postemergence, 10 days; for Corn plant response rating: 125 g ai/ha, 0 to 100 scale, 0 no effect, 100 complete control; for Plant response rating, Corn: 500 g ai/ha, visual injury, 0 to 100 scale (0 no effect, 100 complete control)
# Outline: as §1
# [4] = test system: foxtail, giant; assay: Test A preemergence; assay type: in vivo, Setaria faberi; settings: 0 to 100 scale
# Outline: as §1
# [5] = test system: barnyardgrass; assay: Test A preemergence; assay type: in vivo, Echinochloa crusgalli; settings: visual injury after 10 days, 0 to 100 scale, 0 is no effect, 100 is complete control
# Outline: as §1
# [6] = test system: horseweed; assay: Test A postemergence; assay type: in vivo, Erigeron canadensis; settings: postemergence, 10 days; for Horseweed plant response rating: 125 g ai/ha, 0 to 100 scale, 0 no effect, 100 complete control; for Plant response rating, Horseweed: 500 g ai/ha, visual injury, 0 to 100 scale (0 no effect, 100 complete control)
# Outline: as §1
# [7] = test system: corn; assay: Test A preemergence; assay type: in vivo, Zea mays; settings: 0 to 100 scale
# Outline: as §1
# [8] = test system: barnyardgrass; assay: Test A postemergence; assay type: in vivo, Echinochloa crusgalli; settings: postemergence, 10 days; for Barnyardgrass plant response rating: 125 g ai/ha, 0 to 100 scale, 0 no effect, 100 complete control; for Plant response rating, Barnyardgrass: 500 g ai/ha, visual injury, 0 to 100 scale (0 no effect, 100 complete control)
# Outline: as §1
# [9] = test system: ragweed; assay: Test A preemergence; assay type: in vivo, Ambrosia artemisiifolia; settings: 0 to 100 scale
# Outline: as §1
# [10] = test system: oat, wild; assay: Test A postemergence; assay type: in vivo, Avena fatua; settings: postemergence, 10 days; for Oat, Wild plant response rating: 125 g ai/ha, 0 to 100 scale, 0 no effect, 100 complete control; for Plant response rating, Oat, Wild: 500 g ai/ha, visual injury, 0 to 100 scale (0 no effect, 100 complete control)
# Outline: as §1
# [11] = test system: sedge, umbrella; assay: Test B flooded paddy test; assay type: in vivo, Cyperus difformis; settings: 250 g ai/ha, Flood, 13 days, 0 to 100 scale (0 no effect, 100 complete control)
# Outline: (§2)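 Species grown to 2-leaf stage; pots flooded 3 cm above soil and compound applied directly to paddy water, depth maintained throughout. After 13 days in greenhouse, plants visually rated against controls on 0–100 scale (0 no effect, 100 complete control); dash means no result.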
# [12] = test system: ryegrass, Italian; assay: Test A postemergence; assay type: in vivo, Lolium multiflorum; settings: postemergence, 10 days; for Ryegrass, Italian plant response rating: 125 g ai/ha, 0 to 100 scale, 0 no effect, 100 complete control; for Plant response rating, Ryegrass, Italian: 500 g ai/ha, visual injury, 0 to 100 scale (0 no effect, 100 complete control)
# Outline: as §1
# [13] = test system: oat, wild; assay: Test A preemergence; assay type: in vivo, Avena fatua; settings: 0 to 100 scale
# Outline: as §1
# [14] = test system: rice; assay: Test B flooded paddy test; assay type: in vivo, Oryza sativa; settings: 250 g ai/ha, Flood, 13 days, 0 to 100 scale (0 no effect, 100 complete control)
# Outline: as §2
# [15] = test system: ducksalad; assay: Test B flooded paddy test; assay type: in vivo, Heteranthera limosa; settings: 250 g ai/ha, Flood, 13 days, 0 to 100 scale (0 no effect, 100 complete control)
# Outline: as §2
# [16] = test system: blackgrass; assay: Test A preemergence; assay type: in vivo, Alopecurus myosuroides; settings: 0 to 100 scale
# Outline: as §1
# [17] = test system: pigweed, palmer; assay: Test A postemergence; assay type: in vivo, Amaranthus palmeri; settings: postemergence, 10 days; for Pigweed, Palmer plant response rating: 125 g ai/ha, 0 to 100 scale, 0 no effect, 100 complete control; for Plant response rating, Pigweed, Palmer: 500 g ai/ha, visual injury, 0 to 100 scale (0 no effect, 100 complete control)
# Outline: as §1
# [18] = test system: barnyardgrass; assay: Test B flooded paddy test; assay type: in vivo, Echinochloa crus-galli; settings: 250 g ai/ha, Flood, 13 days, 0 to 100 scale (0 no effect, 100 complete control)
# Outline: as §2
# [19] = test system: kochia; assay: Test A postemergence; assay type: in vivo, Bassia scoparia; settings: postemergence, 10 days; for Kochia plant response rating: 125 g ai/ha, 0 to 100 scale, 0 no effect, 100 complete control; for Plant response rating, Kochia: 500 g ai/ha, visual injury, 0 to 100 scale (0 no effect, 100 complete control)
# Outline: as §1
# [20] = test system: soybean; assay: Test A preemergence; assay type: in vivo, Glycine max; settings: 0 to 100 scale
# Outline: as §1
# [21] = test system: wheat; assay: Test A preemergence; assay type: in vivo, Triticum aestivum; settings: 0 to 100 scale
# Outline: as §1
# [22] = test system: kochia; assay: Test A preemergence; assay type: in vivo, Bassia scoparia; settings: 0 to 100 scale
# Outline: as §1
# [23] = test system: foxtail, giant; assay: Test A postemergence; assay type: in vivo, Setaria faberi; settings: postemergence, 10 days; for Foxtail, Giant plant response rating: 125 g ai/ha, 0 to 100 scale, 0 no effect, 100 complete control; for Plant response rating, Foxtail, Giant: 500 g ai/ha, visual injury, 0 to 100 scale (0 no effect, 100 complete control)
# Outline: as §1
# [24] = test system: galium; assay: Test A postemergence; assay type: in vivo, Galium aparine; settings: postemergence, 10 days; for Galium plant response rating: 125 g ai/ha, 0 to 100 scale, 0 no effect, 100 complete control; for Plant response rating, Galium: 500 g ai/ha, visual injury, 0 to 100 scale (0 no effect, 100 complete control)
# Outline: as §1
# [25] = test system: ryegrass, Italian; assay: Test A preemergence; assay type: in vivo, Lolium multiflorum; settings: 0 to 100 scale
# Outline: as §1
# [26] = test system: soybean; assay: Test A postemergence; assay type: in vivo, Glycine max; settings: postemergence, 10 days; for Plant response rating, Soybean: 500 g ai/ha, visual injury, 0 to 100 scale (0 no effect, 100 complete control)
# Outline: as §1
# [27] = test system: pigweed, palmer; assay: Test A preemergence; assay type: in vivo, Amaranthus palmeri; settings: 0 to 100 scale
# Outline: as §1
# [28] = test system: ragweed; assay: Test A postemergence; assay type: in vivo, Ambrosia artemisiifolia; settings: postemergence, 10 days; for Ragweed plant response rating: 125 g ai/ha, 0 to 100 scale, 0 no effect, 100 complete control; for Plant response rating, Ragweed: 500 g ai/ha, visual injury, 0 to 100 scale (0 no effect, 100 complete control)
# Outline: as §1
# [29] = 125 g ai/ha, visual injury after 10 days, 0 is no effect, 100 is complete control
# [30] = 500 g ai/ha, visual injury after 10 days, 0 is no effect, 100 is complete control
smiles,measurement,setting,value
C=CCOc1ccc(-n2cnc(C(C)C)n2)cc1C(=O)N1C[C@H](C)Oc2c(Cl)cccc21 [Compound 110],Wheat plant response rating,[1],10
same,"Plant response rating, Wheat",[1],20
same,Blackgrass plant response rating,[2],0
same,"Plant response rating, Blackgrass",[2],50
same,Corn plant response rating,[3],10
same,"Plant response rating, Corn",[3],50
same,"Plant response rating, Foxtail, Giant",[4]; [29],90
same,"Plant response rating, Foxtail, Giant",[4]; [30],100
same,"Plant response rating, Barnyardgrass",[5]; 125 g ai/ha,50
same,"Plant response rating, Barnyardgrass",[5]; 500 g ai/ha,90
same,Horseweed plant response rating,[6],0
same,"Plant response rating, Horseweed",[6],0
same,"Plant response rating, Corn",[7]; [29],0
same,"Plant response rating, Corn",[7]; [30],50
same,Barnyardgrass plant response rating,[8],20
same,"Plant response rating, Barnyardgrass",[8],50
same,"Plant response rating, Ragweed",[9]; [29],0
same,"Plant response rating, Ragweed",[9]; [30],40
same,"Oat, Wild plant response rating",[10],0
same,"Plant response rating, Oat, Wild",[10],30
same,"Plant response rating, Sedge, Umbrella",[11],65
same,"Ryegrass, Italian plant response rating",[12],20
same,"Plant response rating, Ryegrass, Italian",[12],80
same,"Plant response rating, Oat, Wild",[13]; [29],0
same,"Plant response rating, Oat, Wild",[13]; [30],50
same,"Plant response rating, Rice",[14],0
same,"Plant response rating, Ducksalad",[15],0
same,"Plant response rating, Blackgrass",[16]; [29],40
same,"Plant response rating, Blackgrass",[16]; [30],70
same,"Pigweed, Palmer plant response rating",[17],40
same,"Plant response rating, Pigweed, Palmer",[17],50
same,"Plant response rating, Barnyardgrass",[18],55
same,Kochia plant response rating,[19],70
same,"Plant response rating, Kochia",[19],90
same,"Plant response rating, Soybean",[20]; [29],40
same,"Plant response rating, Soybean",[20]; [30],60
same,"Plant response rating, Wheat",[21]; [29],20
same,"Plant response rating, Wheat",[21]; [30],30
same,"Plant response rating, Kochia",[22]; [29],0
same,"Plant response rating, Kochia",[22]; [30],20
same,"Foxtail, Giant plant response rating",[23],40
same,"Plant response rating, Foxtail, Giant",[23],90
same,Galium plant response rating,[24],100
same,"Plant response rating, Galium",[24],100
same,"Plant response rating, Ryegrass, Italian",[25]; [29],70
same,"Plant response rating, Ryegrass, Italian",[25]; [30],100
same,"Plant response rating, Soybean",[26],100
same,"Plant response rating, Pigweed, Palmer",[27]; [29],90
same,"Plant response rating, Pigweed, Palmer",[27]; [30],100
same,Ragweed plant response rating,[28],10
same,"Plant response rating, Ragweed",[28],60
CC(C)c1ncn(-c2ccc(OCC(F)(F)F)c(C(=O)N3C[C@H](C)Oc4c(Cl)cccc43)c2)n1 [Compound 141],Wheat plant response rating,[1],10
same,"Plant response rating, Wheat",[1],20
same,Blackgrass plant response rating,[2],30
same,"Plant response rating, Blackgrass",[2],80
same,Corn plant response rating,[3],90
same,"Plant response rating, Corn",[3],90
same,"Plant response rating, Foxtail, Giant",[4]; 125 g ai/ha,90
same,"Plant response rating, Foxtail, Giant",[4]; [30],100
same,"Plant response rating, Barnyardgrass",[5]; 125 g ai/ha,70
same,"Plant response rating, Barnyardgrass",[5]; 500 g ai/ha,90
same,Horseweed plant response rating,[6],0
same,"Plant response rating, Horseweed",[6],0
same,"Plant response rating, Corn",[7]; 125 g ai/ha,10
same,"Plant response rating, Corn",[7]; [30],10
same,Barnyardgrass plant response rating,[8],30
same,"Plant response rating, Barnyardgrass",[8],70
same,"Plant response rating, Ragweed",[9]; 125 g ai/ha,0
same,"Plant response rating, Ragweed",[9]; [30],50
same,"Oat, Wild plant response rating",[10],10
same,"Plant response rating, Oat, Wild",[10],20
same,"Plant response rating, Sedge, Umbrella",[11],95
same,"Ryegrass, Italian plant response rating",[12],30
same,"Plant response rating, Ryegrass, Italian",[12],90
same,"Plant response rating, Oat, Wild",[13]; 125 g ai/ha,60
same,"Plant response rating, Oat, Wild",[13]; [30],80
same,"Plant response rating, Rice",[14],10
same,"Plant response rating, Ducksalad",[15],30
same,"Plant response rating, Blackgrass",[16]; 125 g ai/ha,20
same,"Plant response rating, Blackgrass",[16]; [30],70
same,"Pigweed, Palmer plant response rating",[17],70
same,"Plant response rating, Pigweed, Palmer",[17],100
same,"Plant response rating, Barnyardgrass",[18],25
same,Kochia plant response rating,[19],80
same,"Plant response rating, Kochia",[19],90
same,"Plant response rating, Soybean",[20]; 125 g ai/ha,80
same,"Plant response rating, Soybean",[20]; [30],80
same,"Plant response rating, Wheat",[21]; 125 g ai/ha,20
same,"Plant response rating, Wheat",[21]; [30],30
same,"Plant response rating, Kochia",[22]; 125 g ai/ha,0
same,"Plant response rating, Kochia",[22]; [30],50
same,"Foxtail, Giant plant response rating",[23],60
same,"Plant response rating, Foxtail, Giant",[23],100
same,Galium plant response rating,[24],80
same,"Plant response rating, Galium",[24],100
same,"Plant response rating, Ryegrass, Italian",[25]; 125 g ai/ha,90
same,"Plant response rating, Ryegrass, Italian",[25]; [30],100
same,Soybean plant response rating,"[26]; 125 g ai/ha, 0 to 100 scale, 0 no effect, 100 complete control",100
same,"Plant response rating, Soybean",[26],100
same,"Plant response rating, Pigweed, Palmer",[27]; 125 g ai/ha,100
same,"Plant response rating, Pigweed, Palmer",[27]; [30],100
same,Ragweed plant response rating,[28],30
same,"Plant response rating, Ragweed",[28],60
